# How the values were obtained:
# [1] = target: T1, GlyR α1β^S321F (Homo sapiens, UniProt P23415+P48167, S343F); assay type: cell-based
# T1 construct: Full-length cDNAs encoding the human wild-type (WT) or mutated GlyR β variants; expressed in transfected cells; host or cells: HEK-293
# Procedure: (§1) Full-length cDNAs encoding the human wild-type (WT) or mutated GlyR β variants (β^x) (with x = Y252S, S321F, and A455P) were cloned into the eukaryotic expression vector pRK5 (gift from †P. Seeburg, Heidelberg) and mutagenesis was performed as previously described ([James et al., 2013]). GlyR β variants were further subcloned into pRK5 harboring a myc-epitope at the N-terminus 5′ of residues ^1KEKS^4 representing the first amino acids of the mature GlyR β sequence. eGFP-gephyrin constructs were previously described ([Harvey et al., 2004]). All expression constructs were fully sequenced to verify successful mutagenesis.
# (§2) HEK-293 cells were transiently transfected using a modified calcium-phosphate precipitation method. Transfection was performed at a confluency of 50–75%, 24 h after seeding of 200,000 cells on glass cover slips in 35 mm culture dishes or 1.5 × 10^6 cells per 10 cm dish. For 35 mm and 10 cm culture dishes GlyR α1, GlyR β or GlyR β variants and eGFP-gephyrin were transfected in a ratio of cDNAs 1:10:5, e.g., 0.2 μg α1, 2 μg β, and 1 μg of eGFP-gephyrin for 35 mm dishes. To label cellular compartments, low copy number vectors were used to exclude effects from overexpression [1 μg; dsRed MEM = fusion of sequence from neuromodulin (GAP-43) and dsRed to label the plasma membrane or dsRed ER = fusion construct of dsRed and calreticulin sequence to label the ER]. The DNA was supplied with 2.5 M CaCl2, 0.1x TE buffer and 2x HBS buffer (50 mM HEPES, 12 mM glucose, 10 mM KCl, 280 mM NaCl, 1.5 mM Na2HPO4) mixed and incubated for 20 min at room temperature. The medium was exchanged after 4–6 h and cells were used for experiments 24–48 h after transfection.
# (§3) Electrophysiological characterization was performed on transfected HEK-293 cells using the patch-clamp method for whole cell recordings. Experiments were performed at room temperature. […] Current responses were amplified with an EPC-9 amplifier (HEKA Elektronik GmbH, Lambrecht/Pfalz, Germany) and measured at a holding potential of −60 mV using PatchMaster Next software (HEKA Elektronik GmbH, Lambrecht/Pfalz, Germany).
# [2] = target: T2, GlyR α1β^Y252S (Homo sapiens, UniProt P23415+P48167, Y274S); assay type: cell-based
# T2 construct: Full-length cDNAs encoding the human wild-type (WT) or mutated GlyR β variants; expressed in transfected cells; host or cells: HEK-293
# Procedure: as §1, §2, §3
# [3] = target: T3, GlyR α1β (wild-type) (Homo sapiens, UniProt P23415+P48167); assay type: cell-based
# T3 construct: Full-length cDNAs encoding the human wild-type (WT) or mutated GlyR β variants; expressed in transfected cells; host or cells: HEK-293
# Procedure: as §1, §2, §3
# [4] = target: T4, GlyR α1β^A455P + eGFP-gephyrin (Homo sapiens, UniProt P23415+P48167, A477P); assay type: cell-based
# T4 construct: Full-length cDNAs encoding the human wild-type (WT) or mutated GlyR β variants; expressed in transfected cells; host or cells: HEK-293
# Procedure: as §1, §2, §3
# [5] = target: T5, GlyR α1β^S321F + eGFP-gephyrin (Homo sapiens, UniProt P23415+P48167, S343F); assay type: cell-based
# T5 construct: Full-length cDNAs encoding the human wild-type (WT) or mutated GlyR β variants; expressed in transfected cells; host or cells: HEK-293
# Procedure: as §1, §2, §3
# [6] = target: T6, GlyR α1β^A455P (Homo sapiens, UniProt P23415+P48167, A477P); assay type: cell-based
# T6 construct: Full-length cDNAs encoding the human wild-type (WT) or mutated GlyR β variants; expressed in transfected cells; host or cells: HEK-293
# Procedure: as §1, §2, §3
# [7] = target: T7, GlyR α1β (wild-type) + eGFP-gephyrin (Homo sapiens, UniProt P23415+P48167); assay type: cell-based
# T7 construct: Full-length cDNAs encoding the human wild-type (WT) or mutated GlyR β variants; expressed in transfected cells; host or cells: HEK-293
# Procedure: as §1, §2, §3
# [8] = target: T8, GlyR α1β^Y252S + eGFP-gephyrin (Homo sapiens, UniProt P23415+P48167, Y274S); assay type: cell-based
# T8 construct: Full-length cDNAs encoding the human wild-type (WT) or mutated GlyR β variants; expressed in transfected cells; host or cells: HEK-293
# Procedure: as §1, §2, §3
# [9] = tested on: hyperekplexia phenotype; parameters: method as in Bode and Lynch, 2014; settings: clinical, gain-of-function and loss-of-function mutations; ref Bode and Lynch, 2014; cited from earlier work
# [10] = target: T9, GlyR α1 homomers (Homo sapiens, UniProt P23415); experiment: picrotoxinin block of the glycine-gated response, whole-cell patch-clamp in HEK-293 cells; assay type: cell-based; settings: 100 μM glycine + 100 μM picrotoxinin compared to 100 μM glycine alone
# T9 construct: expressed in transfected cells; host or cells: HEK-293
# T9 sequence (P23415 29-457): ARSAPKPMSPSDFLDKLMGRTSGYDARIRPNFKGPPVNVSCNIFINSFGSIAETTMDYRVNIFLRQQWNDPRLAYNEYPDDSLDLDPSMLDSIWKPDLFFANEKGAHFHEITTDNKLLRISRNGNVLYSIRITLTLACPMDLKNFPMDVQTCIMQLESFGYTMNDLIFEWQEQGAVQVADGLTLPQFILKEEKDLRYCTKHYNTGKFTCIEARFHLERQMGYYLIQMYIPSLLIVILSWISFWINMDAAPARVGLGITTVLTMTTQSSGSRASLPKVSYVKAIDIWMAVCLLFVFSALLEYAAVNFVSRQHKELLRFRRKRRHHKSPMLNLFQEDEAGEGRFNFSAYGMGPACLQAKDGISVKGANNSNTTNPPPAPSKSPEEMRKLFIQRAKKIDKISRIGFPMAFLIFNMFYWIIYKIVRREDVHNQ
# Procedure: as §2, with “The medium was exchanged after 4–6 h and cells were used for experiments 24–48 h after transfection.” left out
# (§4) Electrophysiological characterization was performed on transfected HEK-293 cells using the patch-clamp method for whole cell recordings. […] Current responses were amplified with an EPC-9 amplifier (HEKA Elektronik GmbH, Lambrecht/Pfalz, Germany) and measured at a holding potential of −60 mV using PatchMaster Next software (HEKA Elektronik GmbH, Lambrecht/Pfalz, Germany).
# [11] = tested on: α1β^x channels; experiment: as above; assay type: cell-based, human; settings: 100 μM glycine + 100 μM picrotoxinin compared to 100 μM glycine alone
# Procedure: as §1
# HEK-293 cells were transiently transfected using a modified calcium-phosphate precipitation method. Transfection was performed at a confluency of 50–75%, 24 h after seeding of 200,000 cells on glass cover slips in 35 mm culture dishes or 1.5 × 10^6 cells per 10 cm dish. […]
# as §4
# [12] = tested on: heteromeric αβ channels versus homomeric α subunit GlyRs; parameters: method as in Pribilla et al., 1992; settings: heteromeric αβ channels almost unaffected; ref Pribilla et al., 1992; cited from earlier work
# [13] = residual current, 100 μM picrotoxinin + 100 μM glycine versus 100 μM glycine alone
# [14] = in the presence of eGFP-gephyrin, remaining current, 100 μM glycine + 100 μM picrotoxinin versus 100 μM glycine alone
# T5 sequence (P48167 23-497 S343F, one chain of several): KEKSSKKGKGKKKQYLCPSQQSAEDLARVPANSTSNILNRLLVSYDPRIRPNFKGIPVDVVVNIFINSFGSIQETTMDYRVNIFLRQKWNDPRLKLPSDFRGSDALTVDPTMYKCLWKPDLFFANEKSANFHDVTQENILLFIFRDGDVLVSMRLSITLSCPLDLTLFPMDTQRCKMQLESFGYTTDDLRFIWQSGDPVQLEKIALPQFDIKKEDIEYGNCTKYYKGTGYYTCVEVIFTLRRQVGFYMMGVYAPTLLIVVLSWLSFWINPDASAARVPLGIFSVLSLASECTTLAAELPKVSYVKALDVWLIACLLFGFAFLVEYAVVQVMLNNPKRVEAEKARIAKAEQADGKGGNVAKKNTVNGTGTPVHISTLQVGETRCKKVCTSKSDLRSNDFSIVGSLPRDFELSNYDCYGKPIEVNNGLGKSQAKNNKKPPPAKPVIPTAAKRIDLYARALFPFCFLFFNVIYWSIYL
# T6 sequence (P48167 23-497 A477P, one chain of several): as the sequence (P48167 23-497 S343F, one chain of several) above, with F321S, A455P counted along it
# T2 sequence (P48167 23-497 Y274S, one chain of several): as the sequence (P48167 23-497 S343F, one chain of several) above, with Y252S, F321S counted along it
# T7 sequence (P48167 23-497, one chain of several): as the sequence (P48167 23-497 S343F, one chain of several) above, with F321S counted along it
# T1 sequence (P48167 23-497 S343F, one chain of several): as the sequence (P48167 23-497 S343F, one chain of several) above
# T3 sequence (P48167 23-497, one chain of several): as the sequence (P48167 23-497 S343F, one chain of several) above, with F321S counted along it
# T8 sequence (P48167 23-497 Y274S, one chain of several): as the sequence (P48167 23-497 S343F, one chain of several) above, with Y252S, F321S counted along it
# T4 sequence (P48167 23-497 A477P, one chain of several): as the sequence (P48167 23-497 S343F, one chain of several) above, with F321S, A455P counted along it
compound,measurement,setting,value
NCC(=O)O [glycine],Imax,[1],5.1 ± 0.7 nA
same,Imax,[2],4.7 ± 0.6 nA
same,Imax,[3],4.1 ± 0.4 nA
same,Imax,[4],6.6 ± 1.1 nA
same,Imax,[5],4.1 ± 0.7 nA
same,Imax,[6],9.5 ± 1.2 nA
same,Imax,[7],2.9 ± 1.0 nA
same,Imax,[8],3.7 ± 0.9 nA
O=C1CN=C(c2ccccc2Cl)c2cc([N+](=O)[O-])ccc2N1 [clonazepam],treatment of the hyperekplexia phenotype,[9],effective treatment in many cases
C=C(C)[C@@H]1[C@H]2OC(=O)[C@@H]1[C@]1(O)C[C@H]3O[C@]34C(=O)O[C@H]2[C@]14C [picrotoxinin],reduction in current amplitude of the original value (block of the glycine-gated response),[10],29.22%
same,picrotoxinin block,[11],0–19%
same,I 100 μM picrotoxinin + glycine/I 100 μM glycine,[1]; [13],111 ± 15%
same,I 100 μM picrotoxinin + glycine/I 100 μM glycine,[2]; [13],99 ± 19%
same,I 100 μM picrotoxinin + glycine/I 100 μM glycine,[3]; [13],90 ± 11%
same,Ipicrotoxinin + glycine/ Iglycine,[4]; [14],92 ± 17%
same,Ipicrotoxinin + glycine/ Iglycine,[5]; [14],73 ± 4%
same,I 100 μM picrotoxinin + glycine/I 100 μM glycine,[6]; [13],86 ± 10%
same,Ipicrotoxinin + glycine/ Iglycine,[7]; [14],72 ± 7%
same,Ipicrotoxinin + glycine/ Iglycine,[8]; [14],84 ± 9%
picrotoxin,fold less effective on heteromeric αβ channels than on homomeric α subunit GlyRs,[12],50–200 fold
